{"source": "patent US5430005A", "about": "“Herbicidal compositions” (Monsanto Company, priority 1991, dated 1995)", "assay": "Natural pH of aqueous solution", "assay_type": "physicochemical"}
{"smiles": "O=C(O)CNCP(=O)(O)O", "note": "[N-phosphonomethylglycine]", "values": [{"measurement": "natural pH of aqueous solution", "value": "~4.7"}]}
